Measured values reported in EP0179583A1, “A system for enhancing the water dissolution rate and solubility of poorly soluble drugs” (Merck & Co., Inc., priority 1984, dated 1986).

Key:
Assay type in all cases: physicochemical
[1] = Dissolution of compressed tablets in water (Example 10); conditions: compressed tablets of ivermectin alone
Method: The dissolution of said tablets to yield a clear infinitely diluable aqueous solution of ivermectin is very rapid (15 minutes with gentle agitation).

[2] = Dissolution rate, solution/adsorption products versus comparison (Example 11); conditions: added alone or dissolved in glycerol formal to an aqueous surfactant solution
From the text: 37 parts of each of the solutions produced in Examples 5 and 6 is dry blended with I part of Accurel powder (50-75% void space). This mixture is then blended with 12 parts of Cab-O-Sil to produce a dry free-flowing powder which may be used as such or tableted as in Example 10.

[3] = Dissolution of thermoplastic solids in deionized distilled water (Example 12); conditions: ivermectin into an aqueous solution of an equivalent amount of thermoplastic surfactant
[4] = Solubility in deionized distilled water (Example 14)
Method: A solution of 5% (50 mg/ml) w/v ivermectin is prepared by dissolving the product in Examples 1-5 and 7-9 in sufficient deionized distilled water. A mixture of an equivalent amount of ivermectin in deonized distilled water is only marginally soluble (1-4 mcg/ml). Therefore, the solubility of a poorly water soluble drug is enhanced (50,000 mcg/ml).

Question: With ivermectin as the substance, how does the “time within which tablets do not dissolve or disintegrate” value [1] read?
Answer: Its value is over 3 days.

Question: What about the “dissolution rates compared with the invention” value [2] of the same substance?
Answer: Its value is “less than those observed with the invention”.

Question: And the “dissolution rate compared with the method of the invention” value [3]?
Answer: Its value is “significantly slower”.

Question: And the solubility [4]?
Answer: The solubility was 1 to 4 µg/mL.
